The target of one assay is T1, hTRPV1 (Homo sapiens, UniProt Q8NER1).
T1 construct: expressed in transfected cells; host or cells: HEK293 (transient, Lipofectamine 3000)
Kind of assay: Whole-cell patch-clamp of capsaicin-evoked currents in HEK293 cells expressing hTRPV1. It counts as cell-based. The conditions noted are these: −60 mV. How it is done: To evaluate receptor selectivity, we investigated the activity of compound 23 on recombinant hTRPV1 and hTRPA1 channels recombinantly expressed in HEK293 cells (Fig. 4). We choose these thermosensory channels because of their structural similarity and expression in peripheral nociceptive terminals. In addition, some ligand cross‐interaction within these channels has been reported.
Recording through patch‐clamp techniques was performed on HEK293 cells cultured in DMEM GlutaMax with 10% FBS and 1% P/S. The cell lines were authenticated following the standardization of STR Profiling guidelines (ANSI/ATCC ASN‐0002‐2022) using the CLA Identifier Plus PCR Amplification Kit (Thermo Fisher‐A44660) to analyze 16 highly variant human STRs. The cells were confirmed to be mycoplasma‐free. These cells were transiently transfected with plasmids encoding hTRPV1, hTRPM8, or hTRPA1 using Lipofectamine 3000. Transfected cells were seeded on 12 mm Ø glass coverslips treated with poly‐L‐lysine solution and recorded 2 days post‐transfection. […] Leak currents were not subtracted, and conductance was calculated using the equation: G = I/(V − V r), where I is the measured ionic current, V is the applied voltage, and V r is the reversal potential that for the ionic conditions used was set to 0 mV. […]

For assay [1], the system named is oxaliplatin‐induced peripheral cold allodynia in mice. Kind of assay: Dry ice test in oxaliplatin-induced cold allodynia. It counts as in vivo, mouse. The conditions noted are these: 5 mg·kg^−1 i.p., 30 and 90 min after administration, vs vehicle, oxaliplatin-treated mice. As to the method: Given the inhibitory activity of compound 23 and the antinociceptive effects of TRPM8 antagonists described in models of oxaliplatin (OXP)‐induced neuropathy, we conducted a behavioral experiment in mice to assess the antinociceptive effects of compound 23 after repeated oxaliplatin administration. Oxaliplatin was intraperitoneally (i.p.) administered every other day for 5 days at 6 mg·kg^−1, reaching a total accumulative dose of 18 mg·kg^−1. […] The OXP‐induced sensitization to cold stimuli was also evident with the dry ice test, as evidenced by the significant reduction in the latency to cold stimulation through the application of a dry ice pellet against the paw on a glass surface (Fig. 8B, P < 0.05 Before OXP vs. After OXP). […]
The systemic effect of compound 23 was assessed after intraperitoneal administration at 5 mg·kg^−1, dissolved in a solution of 2% Cremophor and 5% DMSO in saline, with a volume of 10 mL·kg^−1. […] Nociceptive sensitivity was evaluated for 30‐ and 90‐min postinjection using the acetone drop test (7 days after the first oxaliplatin dose) and the dry ice test (9 days after the last oxaliplatin dose).
The dry ice test was conducted as previously described with some modifications. […] To determine the threshold value for each mouse, the latency to paw withdrawal was recorded for each hindpaw and subsequently averaged. […]

Structures are written as SMILES. pIC50: −log10 of the molar value. Where “and” joins values, the source holds several entries; their conditions need not be identical. Identical values can stand only once. Entries after “also recorded” stand apart in the source; their conditions may differ.

For orientation: pIC50 means the negative decadic logarithm of the IC50, by convention in mol/L.

T1 sequence (Q8NER1 whole entry): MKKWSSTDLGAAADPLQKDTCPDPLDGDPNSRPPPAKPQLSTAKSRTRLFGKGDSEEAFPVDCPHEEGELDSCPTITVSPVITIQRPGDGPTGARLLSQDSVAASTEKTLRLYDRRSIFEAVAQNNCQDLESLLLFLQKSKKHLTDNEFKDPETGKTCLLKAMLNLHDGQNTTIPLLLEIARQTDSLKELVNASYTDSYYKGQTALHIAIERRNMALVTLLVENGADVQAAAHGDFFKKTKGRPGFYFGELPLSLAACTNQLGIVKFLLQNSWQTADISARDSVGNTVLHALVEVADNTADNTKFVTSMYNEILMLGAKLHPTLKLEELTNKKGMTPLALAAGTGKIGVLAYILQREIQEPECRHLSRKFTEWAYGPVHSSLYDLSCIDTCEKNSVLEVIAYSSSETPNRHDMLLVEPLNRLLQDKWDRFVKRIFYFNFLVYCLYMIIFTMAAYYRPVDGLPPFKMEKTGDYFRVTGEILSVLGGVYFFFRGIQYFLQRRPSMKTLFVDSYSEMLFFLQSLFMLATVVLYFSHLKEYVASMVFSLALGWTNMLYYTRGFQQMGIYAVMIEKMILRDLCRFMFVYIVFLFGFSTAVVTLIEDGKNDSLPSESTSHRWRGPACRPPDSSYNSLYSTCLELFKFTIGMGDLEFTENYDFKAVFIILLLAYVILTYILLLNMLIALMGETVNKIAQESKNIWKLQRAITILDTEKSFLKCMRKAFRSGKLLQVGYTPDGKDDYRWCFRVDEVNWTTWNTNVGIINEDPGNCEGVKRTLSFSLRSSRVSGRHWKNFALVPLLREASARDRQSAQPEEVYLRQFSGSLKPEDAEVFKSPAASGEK

Consider `O=C(COC(=O)c1ccccc1-c1ccccc1)NC12CC3CC(CC(C3)C1)C2` [Compound 23, 2‐((3S,5S,7S)‐adamantan‐1‐ylamino)‐2‐oxoethyl [1,1′‐biphenyl]‐2‐carboxylate], for which the “block of hTRPV1‐channel activity” value at hTRPV1 (1 μM compound, 0.5 μM capsaicin) is given as “≈ 50%”. Also, the pIC50 on hTRPV1 (capsaicin-evoked current, n = 6, read-out: IC50 of hTRPV1 current blockade) is 5.96 and 6.00. Moreover, the “effect on withdrawal latency to dry ice, systemic treatment” value in assay [1] is “did not exhibit cold antinociceptive effects; also recorded: did not significantly affect”.

For the origin of these results see article PMC12220852, “An adamantane‐based ligand as a novel chemical tool for thermosensory TRPM8 channel therapeutic modulation” (The Febs Journal, 2025).
